These results are taken from PubChem BioAssay (NCI).

Some test systems named below: UO-31 renal; NCI-H226 lung; 786-0 renal; U251 CNS; HCT-15 colon; K-562 leukemia; SR leukemia; SNB-75 CNS; UACC-62 melanoma; HOP-92 NSCLC.
Common to all, as to test: NCI-60 cell line screen, 48 h

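Dose response: 5 concentrations. Exposure: 48 h. Format: 96-well plates. Endpoint: linear interpolation; highest concentration if not reached. At the GI50, growth is halved. The concentration for full growth arrest is given as TGI.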

In the case of `COc1ccc(C2=NN(c3ccccc3)C[N+](c3ccc(OC)cc3)=N2)cc1`, the TGI in the assay with UO-31 renal was 71.1 µM; in the assay with NCI-H226 lung, 64.6 µM; in the assay on 786-0 renal it was greater than 100 µM; in the assay on U251 CNS, 49.8 µM; in the assay on HCT-15 colon, greater than 100 µM; in the assay with K-562 leukemia it was 63.1 µM. In addition, the TGI in the assay on SR leukemia was greater than 100 µM.
Take `Cc1ccccc1NC(=O)C(=O)CC(=O)c1c(C)n([O-])c2ccccc2[n+]1=O`: the TGI with UO-31 renal, in the assay on NCI-H226 lung, in the assay with 786-0 renal, in the assay with SNB-75 CNS, with U251 CNS and in the assay on HCT-15 colon was greater than 100 µM in each case. The TGI in the assay with K-562 leukemia was greater than 100 µM; in the assay with UACC-62 melanoma it was greater than 100 µM; in the assay on SR leukemia it was 0.0875 µM.
Take `NC(=O)c1c(NC(=O)c2ccc3c(c2)OCO3)sc2c1CCC(=O)C2`: the GI50 was 2.19 µM in the assay with 786-0 renal; 2.13 µM in the assay on SNB-75 CNS; 1.65 µM with HOP-92 NSCLC; 0.467 µM in the assay with U251 CNS; 0.356 µM in the assay on K-562 leukemia; 0.372 µM in the assay on SR leukemia. Moreover, the TGI in the assay with 786-0 renal was greater than 100 µM; in the assay on SNB-75 CNS, 6.5 µM; with HOP-92 NSCLC, 5.91 µM; with U251 CNS, greater than 100 µM; in the assay on K-562 leukemia, greater than 100 µM; with SR leukemia, greater than 100 µM.
For `O=CN/C=C/c1ccc(O)c(O)c1`, the TGI with UO-31 renal, with NCI-H226 lung, in the assay with 786-0 renal, with SNB-75 CNS, in the assay with HOP-92 NSCLC and in the assay with U251 CNS was greater than 100 µM in each case. For the same molecule, the TGI with HCT-15 colon, with K-562 leukemia and in the assay on UACC-62 melanoma was greater than 100 µM throughout.
For `COc1ccc(C(C#N)Cc2cc(OC)c(OC)c(OC)c2)cc1` (stereo not given), the TGI with UO-31 renal, with NCI-H226 lung, in the assay on 786-0 renal, with HOP-92 NSCLC, with U251 CNS and with HCT-15 colon was greater than 100 µM throughout. For the same molecule, the TGI with K-562 leukemia and in the assay on UACC-62 melanoma was greater than 100 µM each time.
Take `COc1ccc(C(=O)C(c2ccc(OC)cc2)C2(O)C(=O)Nc3c2ccc(Cl)c3C)cc1` (stereo not given): the TGI with UO-31 renal, in the assay with NCI-H226 lung, in the assay with 786-0 renal, in the assay on SNB-75 CNS, with U251 CNS and in the assay with HCT-15 colon was greater than 100 µM each time. The TGI in the assay with K-562 leukemia and in the assay with UACC-62 melanoma was greater than 100 µM each time.
Regarding `CN(/N=C/c1cccc2cccnc12)c1ccccc1`, the TGI with UO-31 renal, in the assay with NCI-H226 lung, with 786-0 renal, with SNB-75 CNS, in the assay on HOP-92 NSCLC and in the assay with U251 CNS was greater than 100 µM throughout. For the same molecule, the TGI in the assay with HCT-15 colon, with K-562 leukemia and with UACC-62 melanoma was greater than 100 µM each time.
With `C=C1c2[nH]c3c([N+](=O)[O-])c(OC)ccc3c2CCN1C(C)=O`, the TGI in the assay on UO-31 renal is greater than 100 µM; with NCI-H226 lung it was greater than 100 µM; with 786-0 renal it was greater than 100 µM; in the assay on SNB-75 CNS, 42.5 µM; with U251 CNS, greater than 100 µM; in the assay on HCT-15 colon it was greater than 100 µM. For the same molecule, the TGI in the assay with K-562 leukemia, in the assay with UACC-62 melanoma and with SR leukemia was greater than 100 µM in each case.
For the molecule `Cc1ccc(Nc2nc(C)c(C(/C=C/c3ccc(/C=C/C(=N/NC(=O)C[n+]4ccccc4)c4sc(Nc5ccc(C)cc5[N+](=O)[O-])nc4C)cc3)=N\NC(=O)C[n+]3ccccc3)s2)c([N+](=O)[O-])c1`, the TGI with UO-31 renal was greater than 100 µM; with NCI-H226 lung, 84.5 µM; with 786-0 renal it was greater than 100 µM; in the assay with SNB-75 CNS, greater than 100 µM; with U251 CNS, greater than 100 µM; in the assay with HCT-15 colon, greater than 100 µM. Besides, the results for the TGI with K-562 leukemia, in the assay with UACC-62 melanoma and in the assay with SR leukemia were greater than 100 µM, 67 µM and greater than 100 µM, respectively.
For the molecule `Cc1[nH]c2ccccc2c1C1Cc2ccccc2N1C(=O)/C=C/C(=O)O` (stereo not given), the TGI with UO-31 renal was greater than 100 µM; in the assay on NCI-H226 lung, greater than 100 µM; in the assay with 786-0 renal, greater than 100 µM; in the assay on SNB-75 CNS, greater than 100 µM; in the assay on U251 CNS, greater than 100 µM; with HCT-15 colon, 33 µM. For the same molecule, the TGI in the assay on K-562 leukemia, with UACC-62 melanoma and in the assay on SR leukemia was greater than 100 µM throughout.
Take `COC(=O)c1cc(Cl)ccc1NC(=O)c1ccc([N+](=O)[O-])cc1`: the TGI is 38.7 µM with UO-31 renal; 42.5 µM in the assay on NCI-H226 lung; 38.2 µM in the assay with 786-0 renal; 20.7 µM with SNB-75 CNS; 22.2 µM in the assay on U251 CNS; greater than 100 µM with HCT-15 colon. For the same molecule, the TGI in the assay on K-562 leukemia is greater than 100 µM; in the assay on UACC-62 melanoma, 66.5 µM.
On to `COc1ccc2ccccc2c1C1OC(=O)c2ccccc21` (stereo not given), for which the TGI with UO-31 renal, with NCI-H226 lung, with 786-0 renal, in the assay with HOP-92 NSCLC, in the assay on U251 CNS and in the assay on HCT-15 colon was greater than 100 µM each time. Besides, the TGI with K-562 leukemia and in the assay on UACC-62 melanoma was greater than 100 µM in each case.
Consider `O=C(Nc1ccc(Cl)c(Cl)c1)O/N=C\c1c(Cl)ccc([N+](=O)[O-])c1Cl`, for which the GI50 with UO-31 renal was 1.45 µM; in the assay on NCI-H226 lung it was 3.06 µM; with 786-0 renal, 3.96 µM; in the assay on SNB-75 CNS it was 2.12 µM; with U251 CNS, 1.68 µM; with HCT-15 colon, 1.2 µM. Besides, the figures for the GI50 in the assay with K-562 leukemia and in the assay with SR leukemia were 0.825 µM and 0.878 µM, respectively. In addition, the TGI was found to be 2.88 µM with UO-31 renal; 12.4 µM in the assay on NCI-H226 lung; 13.5 µM in the assay on 786-0 renal; 9.5 µM with SNB-75 CNS; 3.14 µM with U251 CNS; 3.48 µM with HCT-15 colon. Besides, the results for the TGI with K-562 leukemia and in the assay with SR leukemia were 6.56 µM and 5.04 µM, respectively.
`COC(=O)CCC(NC(=S)N/N=C/c1ccco1)C(=O)OC` (stereo not given): the TGI in the assay on UO-31 renal, in the assay on NCI-H226 lung, in the assay on 786-0 renal, in the assay on SNB-75 CNS, with U251 CNS and with HCT-15 colon was greater than 100 µM each time. The TGI with K-562 leukemia, in the assay with UACC-62 melanoma and in the assay with SR leukemia was greater than 100 µM each time.
